Experimental data as given in patent US9993515B2 (DSM IP ASSETS B.V., priority 2006, dated 2018).
Where two headings read alike, the source gives them in different places. Residues, ends and D or L forms follow the SMILES beside them.

How the values were obtained:
healthy volunteers = test: Profile of Mood States (POMS) after consumption of tryptophan sources (Example 6); assay type: in vivo, human; conditions: for mood changes after the intake (POMS total mood scores): over time after intake
Text: The POMS comprises five different subscales for mood; ranging from Anger, Depression, Fatigue and Tension that refer to a negative mood state, to Vigor concerning a positive mood.

[1] = both, human, in vivo
Procedure: The amino acid profiles in plasma were analyzed as described in Example 6 by HPLC according to van Eijk et al (J. Chromatogr. 1993: 620: 143-148).
The aim of the present study was to investigate in healthy volunteers plasma Trp/LNAA profiles and mood after the consumption of different tryptophan containing preparations.
Eighteen healthy students (9 males and 9 females: age between 18-30 years) participated in the study. Exclusion criteria for participation were chronic and current illness, history of psychiatric or medical illness, use of medication or drugs, alcohol consumption (>2 units/day), metabolic-, hormonal- or intestinal diseases and irregular diets or deviant eating habits (assessed by health and life-style questionnaires). Subjects participating in the experiment were in the normal range for the Body-Mass Index (BMI in kg/m^2 between 20-25) and female subjects are matched for contraception. Women participated during their mid-late follicular phase (day 4-10), while women using contraception participated when they actually used the contraception pill. […] All subjects participating in the experiment signed an Informed Consent Form. This study was conducted according to the EC principles of Good Clinical Practice (GCP) adopted by the 52nd WMA General Assembly, Edinburgh, Scotland, October 2000.
Subjects were instructed to fast overnight; only water or tea without sugar was permitted. During five experimental morning sessions, subjects visited the laboratory to monitor plasma Trp/LNAA concentrations and mood following the intake of a drink containing different Trp or LNAA concentrations. The order of presentation of the various drinks was counterbalanced and the four experimental days were separated by a one-week period. On each experimental morning, a 312 ml drink was provided containing different tryptophan (Trp) or LNAA concentrations (Table 1). All drinks contained 0.10 g sweetener (acesulfame) and were filled up with plain water in order to reach 312 mL. A research assistant blind to the dietary conditions conducted the administration of the different drinks.
Blood samples were collected in duplicate before and 15, 30, 60, 90, 120, 180 and 210 minutes after ingestion in 5 ml vacutainer tubes containing sodium heparine and were then centrifuged at 5000 rpm for 5 min at 4° C. The resulting supernatants were mixed with sulfasalicyl acid (4 mg/100 microliter) and directly stored at −80° C. until analysis. Plasma amino acid analysis was conducted with HPLC, making use of a 2-3 μm Bischof Spherisorb ODS II column as described by van Eijk et al (J. Chromatogr. 1993: 620: 143-148). The plasma Trp/LNAA ratios were calculated by dividing the plasma molar tryptophan concentration by the sum of the plasma molar concentrations of the large neutral amino acids valine, isoleucine, leucine, tyrosine and phenylalanine. Statistical analysis took place by means of repeated measures multivariate and univariate analyses of variance (MANOVA and ANOVA) using the General Linear Model (GLM: SPSS 12.0 for Windows). All statistics were evaluated at a significance level of P=0.05.

Compound	mood changes after the intake (POMS total mood scores) (healthy volunteers)	mood (POMS total mood scores) (healthy volunteers; 60 min after the intake)	plasma Trp/LNAA ratio ([1]; 0 min)	plasma Trp/LNAA ratio ([1]; 30 min)	plasma Trp/LNAA ratio ([1]; 60 min)	plasma Trp/LNAA ratio ([1]; 90 min)	plasma Trp/LNAA ratio ([1]; 120 min)	plasma Trp/LNAA ratio ([1]; 180 min)	plasma Trp/LNAA ratio ([1]; 210 min)
N[C@@H](CO)C(=O)N[C@@H](Cc1c[nH]c2ccccc12)C(=O)O [SYN, Ser-Trp] (H-Ser-Trp-OH)	not significant	–	–	–	–	–	–	–	–
N[C@@H](Cc1c[nH]c2ccccc12)C(=O)O [TRP, L-tryptophan]	–	improvements of mood	0.11	0.12	0.29	0.31	0.32	0.24	0.20
ALAC: intact alpha-lactalbumin obtained as Biopure (>90% alpha-lactalbumin) from Davisco Foods International	no mood changes	–	–	–	–	–	–	–	–
